Structures can show the parent of a compound that is named as a salt. Where two headings read alike, the source gives them in different places. Non-standard residues stand in square brackets, D forms with d. Residues, ends and D or L forms follow the SMILES beside them. Dmt = Cc1cc(O)cc(C)c1C[C@H](N)C(=O)O; Tic = O=C(O)[C@@H]1Cc2ccccc2CN1
Tests used:
[1] = biological target: T1, δ-opioid receptor (Rattus norvegicus, UniProt P33533); test: opioid receptor binding competition assay, rat brain P2 synaptosomal membranes (δ)
T1 construct: from tissue; host or cells: rat brain P2 synaptosomal membranes (Sprague-Dawley)
T1 sequence (P33533 whole entry): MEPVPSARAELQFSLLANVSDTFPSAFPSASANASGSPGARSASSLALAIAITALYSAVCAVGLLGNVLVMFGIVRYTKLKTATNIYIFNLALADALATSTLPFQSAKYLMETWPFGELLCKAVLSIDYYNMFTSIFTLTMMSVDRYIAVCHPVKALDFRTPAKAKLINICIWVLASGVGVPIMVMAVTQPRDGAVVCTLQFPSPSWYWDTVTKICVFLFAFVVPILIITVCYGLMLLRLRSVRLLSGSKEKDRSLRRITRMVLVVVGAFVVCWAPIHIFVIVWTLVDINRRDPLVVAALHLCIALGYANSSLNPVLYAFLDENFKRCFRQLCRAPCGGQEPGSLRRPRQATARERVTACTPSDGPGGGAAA
Procedure: (§1) Synaptosomes were preincubated to remove endogenous opioids, washed in excess ice-cold buffer containing protease inhibitor and stored in a glycerol-containing buffer with protease inhibitor at −80° C. as described in Lazarus et al., J. Med. Chem. 34:1350-55 (1991). […] After incubation, the radiolabeled membranes were rapidly filtered on Whatman GF/C glass fiber filters presoaked in 0.1% polyethylenimine in order to optimize the signal-to-noise ratio, washed with ice-cold BSA buffer, and dried at 75-80° C. Radioactivity was determined using EcoLume (ICN, Costa Mesa, Calif.). All compounds were analyzed in duplicate using 5-8 peptide dosages and several synaptosomal preparations in independent repetitions to ensure statistical significance. The affinity constants (Ki) were calculated according to Cheng and Prusoff (Cheng et al., Biochem. Pharmacol., 22: 3099-3108 ([…])).

[2] = biological target: T2, μ-opioid receptor (Rattus norvegicus, UniProt P33535); test: opioid receptor binding competition assay, rat brain P2 synaptosomal membranes (μ); details: for Ki(δ)/Ki(μ): selectivity ratio
T2 construct: from tissue; host or cells: rat brain P2 synaptosomal membranes (Sprague-Dawley)
T2 sequence (P33535 whole entry): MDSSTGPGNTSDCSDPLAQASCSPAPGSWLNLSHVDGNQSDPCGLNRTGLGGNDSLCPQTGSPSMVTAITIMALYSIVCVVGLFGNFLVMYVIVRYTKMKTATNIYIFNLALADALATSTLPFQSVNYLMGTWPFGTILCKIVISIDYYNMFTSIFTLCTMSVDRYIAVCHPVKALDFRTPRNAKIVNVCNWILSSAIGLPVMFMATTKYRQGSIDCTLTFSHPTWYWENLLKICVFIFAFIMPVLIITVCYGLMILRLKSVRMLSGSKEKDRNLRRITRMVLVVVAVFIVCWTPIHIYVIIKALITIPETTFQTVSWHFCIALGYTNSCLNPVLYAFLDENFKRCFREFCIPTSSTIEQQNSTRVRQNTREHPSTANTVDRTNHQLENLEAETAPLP
Procedure: as §1

[3] = biological target: T3, δ-opioid receptor (Mus musculus, UniProt P32300); test: mouse vas deferens (MVD) bioassay; type: cell-based; details: for MVD Antagonist pA2: versus deltorphin II as agonist
T3 construct: from tissue; host or cells: isolated mouse vas deferens
T3 sequence (P32300 whole entry): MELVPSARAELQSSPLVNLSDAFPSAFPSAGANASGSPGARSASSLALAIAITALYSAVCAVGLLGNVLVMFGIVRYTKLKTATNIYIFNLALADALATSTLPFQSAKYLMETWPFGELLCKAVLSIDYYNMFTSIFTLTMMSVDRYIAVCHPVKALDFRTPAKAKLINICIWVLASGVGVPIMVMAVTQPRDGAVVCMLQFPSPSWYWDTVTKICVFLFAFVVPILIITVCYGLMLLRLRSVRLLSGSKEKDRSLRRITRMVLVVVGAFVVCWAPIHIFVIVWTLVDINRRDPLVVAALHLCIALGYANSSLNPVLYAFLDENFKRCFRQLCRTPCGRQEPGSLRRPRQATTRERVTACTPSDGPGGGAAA
From the text: Bioorg. Med. Chem., 11: 675-678 (2003). The isolated tissues were suspended in organ baths containing balanced salt solutions in a physiological buffer, pH 7.5. […]

[4] = biological target: μ-opioid receptor (Cavia porcellus, UniProt P97266); test: guinea pig ileum (GPI) bioassay; type: cell-based; details: for GPI Antagonist pA2 (nM), value in parentheses (Ke): versus endomorphin-2, antilog of pA2; for GPI Antagonist pA2: versus endomorphin-2 as agonist
Sequence of μ-opioid receptor (Cavia porcellus, UniProt P97266) (P97266 whole entry, looked up): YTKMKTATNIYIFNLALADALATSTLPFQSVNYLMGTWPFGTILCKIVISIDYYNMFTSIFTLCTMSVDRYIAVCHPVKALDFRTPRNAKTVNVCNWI
Procedure: The myenteric plexus longitudinal muscle preparations (2-3 cm segments) from the small intestine of male Hartley strain guinea pigs (GP1) measured μ-opioid receptor agonism and a single mouse vas deferens (MVD) was used to determine δ-opioid receptor agonism as described in Sasaki et al. Bioorg. […] The isolated tissues were suspended in organ baths containing balanced salt solutions in a physiological buffer, pH 7.5. Agonists were tested for the inhibition of electrically evoked contraction and expressed as IC50 (nM) obtained from the dose-response curves.

[5] = Table 1, rat brain synaptosomes, footnote a: versus [3H]DAMGO, read-out: Ki(δ)
[6] = Table 1, rat brain synaptosomes, footnote b: versus [3H]DPDPE, read-out: Ki(μ)
[7] = Table 2, inhibition of electrically evoked contraction, read-out: MVD agonist IC50
[8] = Table 2, versus deltorphin II, antilog of pA2
[9] = Table 2, inhibition of electrically evoked contraction, read-out: GPI agonist IC50

3,6-Bis(Dmt-Tic-NH-butyl)-2(1H)-pyrazinone [Compound 11]
Ki [1, 5]: 0.323 ± 0.007 nM | Ki(μ)/Ki(δ) ([1]; Table 1, selectivity ratio): 5 | Ki [2, 6]: 1.74 ± 0.14 nM | IC50 [3, 7]: > 10 µM | MVD Antagonist pA2 ([3]; Table 2): 11.06 | MVD Antagonist pA2 (nM), value in parentheses (Ke) [3, 8]: 0.0871 nM | IC50 [4, 9]: > 10 µM

3,6-Bis(Dmt-Tic-NH-propyl)˜2(1H)-pyrazinone [Compound 10]
Ki [1, 5]: 0.155 ± 0.016 nM | Ki(μ)/Ki(δ) ([1]; Table 1, selectivity ratio): 20 | Ki [2, 6]: 3.08 ± 0.17 nM | IC50 [3, 7]: > 10 µM | MVD Antagonist pA2 ([3]; Table 2): 10.56 | MVD Antagonist pA2 (nM), value in parentheses (Ke) [3, 8]: 0.0275 nM | IC50 [4, 9]: 7.03 ± 2.47 µM

3-(Dmt-Tic-NH-butyl)-6-(Dmt-Tic-NH-propyl)-2(1H)-pyrazinone [Compound 13]
Ki [1, 5]: 0.092 ± 0.01 nM | Ki(μ)/Ki(δ) ([1]; Table 1, selectivity ratio): 25 | Ki [2, 6]: 2.28 ± 0.03 nM | IC50 [3, 7]: > 10 µM | MVD Antagonist pA2 ([3]; Table 2): 10.47 | MVD Antagonist pA2 (nM), value in parentheses (Ke) [3, 8]: 0.0339 nM | IC50 [4, 9]: > 10 µM | GPI Antagonist pA2 (nM), value in parentheses (Ke) ([4]; Table 2): 112 nM | GPI Antagonist pA2 ([4]; Table 2): 6.95

3-(Dmt-Tic-NH-ethyl)-6-(Dmt-Tic-NH-butyl)-2(1H)-pyrazinone [Compound 14]
Ki [1, 5]: 0.107 ± 0.007 nM | Ki(μ)/Ki(δ) ([1]; Table 1, selectivity ratio): 13 | Ki [2, 6]: 1.37 ± 0.13 nM | IC50 [3, 7]: > 10 µM | MVD Antagonist pA2 ([3]; Table 2): 10.99 | MVD Antagonist pA2 (nM), value in parentheses (Ke) [3, 8]: 0.0102 nM | IC50 [4, 9]: > 10 µM

3-(Dmt-Tic-NH-propyl)-6-(Dmt-Tic-NH-butyl)-2(1H)-pyrazinone [Compound 12]
Ki [1, 5]: 0.16 ± 0.025 nM | Ki(μ)/Ki(δ) ([1]; Table 1, selectivity ratio): 10 | Ki [2, 6]: 1.56 ± 0.11 nM | IC50 [3, 7]: > 10 µM | MVD Antagonist pA2 ([3]; Table 2): 10.60 | MVD Antagonist pA2 (nM), value in parentheses (Ke) [3, 8]: 0.0251 nM | IC50 [4, 9]: > 10 µM

Cc1cc(O)cc(C)c1CC(N)C(=O)N1Cc2ccccc2CC1C(=O)NCc1[nH]c(=O)c(CNC(=O)C2Cc3ccccc3CN2C(=O)C(N)Cc2c(C)cc(O)cc2C)nc1C (centres unmarked) (as salt: HCl) [Compound 8]
melting point: 224 to 226 °C (dec.)

Cc1cc(O)cc(C)c1CC(N)C(=O)N1Cc2ccccc2CC1C(=O)NCCCCNC(=O)C1Cc2ccccc2CN1C(=O)C(N)Cc1c(C)cc(O)cc1C (stereo not drawn) (as salt: HCl) [Compound 18, 1,4-Bis(Dmt-Tic-amino)butane]
melting point: 215 to 217 °C

Cc1cc(O)cc(C)c1CC(N)C(=O)N1Cc2ccccc2CC1C(=O)NCCCCCCNC(=O)C1Cc2ccccc2CN1C(=O)C(N)Cc1c(C)cc(O)cc1C (stereo not drawn) (as salt: HCl) [Compound 19, 1,6-Bis(Dmt-Tic-amino)hexane]
melting point: 215 to 217 °C

Cc1cc(O)cc(C)c1CC(N)C(=O)N1Cc2ccccc2CC1C(=O)NCCCCCCCCCCNC(=O)C1Cc2ccccc2CN1C(=O)C(N)Cc1c(C)cc(O)cc1C (centres unmarked) (as salt: HCl) [Compound 20, 1,10-Bis(Drat-Tic-amino)decane]
melting point: 205 to 207 °C

Cc1cc(O)cc(C)c1CC(C(=O)N1Cc2ccccc2CC1C(=O)NCCCCCCNC(=O)C1Cc2ccccc2CN1C(=O)C(Cc1c(C)cc(O)cc1C)N(C)C)N(C)C (stereo not drawn) (as salt: HCl) [Compound 21, 1,6-Bis(N,N-Dimethyl-Dmt-Tic-NH)-hexane]
melting point: 195 to 197 °C

Cc1cc(O)cc(C)c1CC(N)C(=O)N1Cc2ccccc2CC1C(=O)NCc1[nH]c(=O)c(CNC(=O)C2Cc3ccccc3CN2C(=O)C(N)Cc2c(C)cc(O)cc2C)nc1C (centres unmarked) [Compound 8]
Ki [1]: 0.163 ± 0.018 nM | Ki(μ)/Ki(δ) [1]: 23 | Ki [2]: 3.76 ± 0.3 nM | MVD Antagonist pA2 (nM), value in parentheses (Ke) [3]: 11.22 (0.006) nM | IC50 ([3]; read-out: MVD agonist IC50): > 10 µM | IC50 ([4]; read-out: GPI agonist IC50): > 10 µM

Cc1cc(O)cc(C)c1CC(N)C(=O)N1Cc2ccccc2CC1C(=O)NCCc1cnc(CCNC(=O)C2Cc3ccccc3CN2C(=O)C(N)Cc2c(C)cc(O)cc2C)c(=O)[nH]1 (stereo not drawn) [Compound 9, 3,6-Bis(Dmt-Tic-NH-ethyl)-2(1H)-pyrazinone]
Ki [1, 5]: 0.095 ± 0.0004 nM | Ki(μ)/Ki(δ) ([1]; Table 1, selectivity ratio): 30 | Ki [2, 6]: 2.83 ± 0.12 nM | IC50 [3, 7]: > 10 µM | MVD Antagonist pA2 ([3]; Table 2): 10.73 | MVD Antagonist pA2 (nM), value in parentheses (Ke) [3, 8]: 0.0186 nM | IC50 [4, 9]: > 10 µM | GPI Antagonist pA2 (nM), value in parentheses (Ke) ([4]; Table 2): 165 nM | GPI Antagonist pA2 ([4]; Table 2): 6.78

Cc1cc(O)cc(C)c1CC(N)C(=O)N1Cc2ccccc2CC1C(=O)NCCCCNC(=O)C1Cc2ccccc2CN1C(=O)C(N)Cc1c(C)cc(O)cc1C (stereo not drawn) [Compound 18, 1,4-Bis(Dmt-Tic-amino)butane]
Ki [1]: 0.124 ± 0.016 nM | Ki(μ)/Ki(δ) ([1]; Table 1, selectivity ratio): 46 | Ki [2]: 5.72 ± 0.22 nM | IC50 [3]: > 10 µM | MVD Antagonist pA2 (nM), value in parentheses (Ke) [3, 8]: 0.0309 nM | IC50 [4]: > 10 µM | GPI Antagonist pA2 (nM), value in parentheses (Ke) ([4]; Table 2): 102 nM

Cc1cc(O)cc(C)c1CC(N)C(=O)N1Cc2ccccc2CC1C(=O)NCCCCCCNC(=O)C1Cc2ccccc2CN1C(=O)C(N)Cc1c(C)cc(O)cc1C (stereo not drawn) [Compound 19, 1,6-Bis(Dmt-Tic-amino)hexane]
Ki [1]: 0.129 ± 0.03 nM | Ki [2]: 1.79 ± 0.08 nM | IC50 [3]: > 10 µM | MVD Antagonist pA2 (nM), value in parentheses (Ke) [3, 8]: 0.024 nM

Cc1cc(O)cc(C)c1CC(N)C(=O)N1Cc2ccccc2CC1C(=O)NCCCCCCCCCCNC(=O)C1Cc2ccccc2CN1C(=O)C(N)Cc1c(C)cc(O)cc1C (centres unmarked) [Compound 20, 1,10-Bis(Drat-Tic-amino)decane]
Ki [1]: 1.53 ± 0.16 nM | Ki(μ)/Ki(δ) ([1]; Table 1, selectivity ratio): 3 | Ki [2]: 4.86 ± 0.41 nM | IC50 [3]: > 10 µM | MVD Antagonist pA2 (nM), value in parentheses (Ke) [3, 8]: 0.0107 nM | IC50 [4]: 5.42 ± 1.84 µM

Cc1cc(O)cc(C)c1CC(C(=O)N1Cc2ccccc2CC1C(=O)NCCCCCCNC(=O)C1Cc2ccccc2CN1C(=O)C(Cc1c(C)cc(O)cc1C)N(C)C)N(C)C (stereo not drawn) [Compound 21, 1,6-Bis(N,N-Dimethyl-Dmt-Tic-NH)-hexane]
Ki [1]: 0.06 ± 0.01 nM | Ki(μ)/Ki(δ) ([1]; Table 1, selectivity ratio): 37 | Ki [2]: 2.21 ± 0.08 nM | IC50 [3]: > 10 µM | MVD Antagonist pA2 (nM), value in parentheses (Ke) [3, 8]: 0.0052 nM | IC50 [4]: > 10 µM | Kb [4]: 4 nM

C=CCN(CC=C)[C@@H](Cc1ccc(O)cc1)C(=O)N1CCC[C@H]1C(=O)N[C@@H](Cc1ccccc1)C(=O)N[C@@H](Cc1ccccc1)C(N)=O [Compound 28, [N,N-Diallyl-Tyr^1]EM-2]
Ki [1]: 5760 ± 1220 nM | Ki [2]: 1050 ± 175 nM | Ki(δ)/Ki(μ) ([2]; Table 3): 6

C=CCN[C@@H](Cc1ccc(O)cc1)C(=O)N1CCC[C@H]1C(=O)N[C@@H](Cc1ccccc1)C(=O)N[C@@H](Cc1ccccc1)C(N)=O [Compound 29, [N-allyl]EM-2]
Ki ([1]; Table 3, versus [3H]DPDPE, rat brain synaptosomes, read-out: Ki(δ)): 7360 ± 259 nM | Ki(δ)/Ki(μ) ([2]; Table 3): 57 | Ki ([2]; Table 3, versus [3H]DAMGO, rat brain synaptosomes, read-out: Ki(μ)): 130 ± 9.27 nM

C=CCN(CC=C)[C@@H](Cc1c(C)cc(O)cc1C)C(=O)N1CCC[C@H]1C(=O)N[C@@H](Cc1ccccc1)C(=O)N[C@@H](Cc1ccccc1)C(N)=O [Compound 30, [N,N-(allyl)2Dmt^1]EM-2]
Ki(δ)/Ki(μ) ([2]; Table 3): 108 | GPI pA2 ([4]; Table 4, μ antagonism): None

C=CCN[C@@H](Cc1c(C)cc(O)cc1C)C(=O)NCCCc1[nH]c(=O)c(CCCNC(=O)[C@H](Cc2c(C)cc(O)cc2C)NCC=C)nc1C [Compound 32, Bis-[(N-allyl)Dmt-NH-propyl]pyrazinone]
Ki [1]: 51.5 ± 4.1 nM | Ki [2]: 12.4 ± 1.1 nM | Ki(δ)/Ki(μ) ([2]; Table 3): 4 | Kb [3]: 269 nM | IC50 ([3]; Table 4, agonism, read-out: MVD): > 10 µM | Kb [4]: 67.6 nM | IC50 ([4]; Table 4, agonism, read-out: GPI): > 10 µM | pA2(μ)/pA2(δ) ([4]; Table 4, selectivity of antagonism): 4

Cc1cc(O)cc(C)c1C[C@H](N)C(=O)N1Cc2ccccc2C[C@H]1C(=O)O [H-Dmt-Tic-OH, reference compound] (H-[Dmt]-[Tic]-OH)
MVD agonist IC50, nM ([3]; Table 2, inhibition of electrically evoked contraction): none
